Test results as given in PubChem BioAssay AID1259407 (Chemical Carcinogenesis Research Information System (CCRIS), 2018).
Calls of active or inactive are those of the source. No rule for the calls is given here.

Tested on: CCRIS mutagenicity, Ames/micronucleus/aberration tests
Assay: CCRIS mutagenicity studies
[1] = Test System: AMES SALMONELLA TYPHIMURIUM, Strain/Indicator: TA100, Metabolic Activation: NONE, Method: PREINCUBATION

COC(=O)c1ccccc1O
mutagenic call (Test System: AMES SALMONELLA TYPHIMURIUM, Strain/Indicator: TA98, Metabolic Activation: GUINEA PIG, LIVER, S-9, PCB, Method: PREINCUBATION): inactive; negative | mutagenic call (Test System: AMES SALMONELLA TYPHIMURIUM, Strain/Indicator: TA98, Metabolic Activation: HAMSTER, LIVER, S-9, AROCLOR 1254 (30%), Method: PREINCUBATION): inactive; negative | mutagenic call (Test System: AMES SALMONELLA TYPHIMURIUM, Strain/Indicator: TA98, Metabolic Activation: HAMSTER, LIVER, S-9, AROCLOR 1254 (50%), Method: PREINCUBATION): inactive; negative | mutagenic call (Test System: AMES SALMONELLA TYPHIMURIUM, Strain/Indicator: TA98, Metabolic Activation: HAMSTER, LIVER, S-9, PCB, Method: PREINCUBATION): active; positive | mutagenic call (Test System: AMES SALMONELLA TYPHIMURIUM, Strain/Indicator: TA98, Metabolic Activation: MOUSE, LIVER, S-9, PCB, Method: PREINCUBATION): inactive; negative | mutagenic call (Test System: AMES SALMONELLA TYPHIMURIUM, Strain/Indicator: TA98, Metabolic Activation: NONE, Method: PREINCUBATION): inactive; negative | mutagenic call (Test System: AMES SALMONELLA TYPHIMURIUM, Strain/Indicator: TA98, Metabolic Activation: RAT, LIVER, S-9, AROCLOR 1254 (30%), Method: PREINCUBATION): inactive; negative | mutagenic call (Test System: AMES SALMONELLA TYPHIMURIUM, Strain/Indicator: TA98, Metabolic Activation: RAT, LIVER, S-9, AROCLOR 1254 (50%), Method: PREINCUBATION): inactive; negative | mutagenic call (Test System: AMES SALMONELLA TYPHIMURIUM, Strain/Indicator: TA98, Metabolic Activation: RAT, LIVER, S-9, PCB, Method: PREINCUBATION): inactive; negative | mutagenic call (Test System: AMES SALMONELLA TYPHIMURIUM, Strain/Indicator: TA100, Metabolic Activation: GUINEA PIG, LIVER, S-9, PCB, Method: PREINCUBATION): inactive; negative | mutagenic call (Test System: AMES SALMONELLA TYPHIMURIUM, Strain/Indicator: TA100, Metabolic Activation: HAMSTER, LIVER, S-9, AROCLOR 1254 (30%), Method: PREINCUBATION): inactive; negative | mutagenic call (Test System: AMES SALMONELLA TYPHIMURIUM, Strain/Indicator: TA100, Metabolic Activation: HAMSTER, LIVER, S-9, AROCLOR 1254 (50%), Method: PREINCUBATION): inactive; negative | mutagenic call (Test System: AMES SALMONELLA TYPHIMURIUM, Strain/Indicator: TA100, Metabolic Activation: HAMSTER, LIVER, S-9, PCB, Method: PREINCUBATION): active; positive | mutagenic call (Test System: AMES SALMONELLA TYPHIMURIUM, Strain/Indicator: TA100, Metabolic Activation: MOUSE, LIVER, S-9, PCB, Method: PREINCUBATION): inactive; negative | mutagenic call [1]: inactive; negative | mutagenic call (Test System: AMES SALMONELLA TYPHIMURIUM, Strain/Indicator: TA100, Metabolic Activation: RAT, LIVER, S-9, AROCLOR 1254 (30%), Method: PREINCUBATION): inactive; negative | mutagenic call (Test System: AMES SALMONELLA TYPHIMURIUM, Strain/Indicator: TA100, Metabolic Activation: RAT, LIVER, S-9, AROCLOR 1254 (50%), Method: PREINCUBATION): inactive; negative | mutagenic call (Test System: AMES SALMONELLA TYPHIMURIUM, Strain/Indicator: TA100, Metabolic Activation: RAT, LIVER, S-9, PCB, Method: PREINCUBATION): inactive; negative | mutagenic call (Test System: AMES SALMONELLA TYPHIMURIUM, Strain/Indicator: TA1535, Metabolic Activation: HAMSTER, LIVER, S-9, AROCLOR 1254 (30%), Method: PREINCUBATION): inactive; negative | mutagenic call (Test System: AMES SALMONELLA TYPHIMURIUM, Strain/Indicator: TA1535, Metabolic Activation: HAMSTER, LIVER, S-9, AROCLOR 1254 (50%), Method: PREINCUBATION): inactive; negative | mutagenic call (Test System: AMES SALMONELLA TYPHIMURIUM, Strain/Indicator: TA1535, Metabolic Activation: NONE, Method: PREINCUBATION): inactive; negative | mutagenic call (Test System: AMES SALMONELLA TYPHIMURIUM, Strain/Indicator: TA1535, Metabolic Activation: RAT, LIVER, S-9, AROCLOR 1254 (30%), Method: PREINCUBATION): inactive; negative | mutagenic call (Test System: AMES SALMONELLA TYPHIMURIUM, Strain/Indicator: TA1535, Metabolic Activation: RAT, LIVER, S-9, AROCLOR 1254 (50%), Method: PREINCUBATION): inactive; negative | mutagenic call (Test System: AMES SALMONELLA TYPHIMURIUM, Strain/Indicator: TA1537, Metabolic Activation: HAMSTER, LIVER, S-9, AROCLOR 1254 (30%), Method: PREINCUBATION): inactive; negative | mutagenic call (Test System: AMES SALMONELLA TYPHIMURIUM, Strain/Indicator: TA1537, Metabolic Activation: HAMSTER, LIVER, S-9, AROCLOR 1254 (50%), Method: PREINCUBATION): inactive; negative | mutagenic call (Test System: AMES SALMONELLA TYPHIMURIUM, Strain/Indicator: TA1537, Metabolic Activation: NONE, Method: PREINCUBATION): inactive; negative | mutagenic call (Test System: AMES SALMONELLA TYPHIMURIUM, Strain/Indicator: TA1537, Metabolic Activation: RAT, LIVER, S-9, AROCLOR 1254 (30%), Method: PREINCUBATION): inactive; negative | mutagenic call (Test System: AMES SALMONELLA TYPHIMURIUM, Strain/Indicator: TA1537, Metabolic Activation: RAT, LIVER, S-9, AROCLOR 1254 (50%), Method: PREINCUBATION): inactive; negative

NC(=O)c1ccc(N)nc1
mutagenic call (Test System: CHINESE HAMSTER OVARY, Strain/Indicator: CHO/6-THIOGUANINE, Metabolic Activation: NONE): inactive; negative | mutagenic call (Test System: CHINESE HAMSTER OVARY, Strain/Indicator: CHO/6-THIOGUANINE, Metabolic Activation: RAT, LIVER, S-9): inactive; negative | mutagenic call (Test System: CHINESE HAMSTER OVARY, Strain/Indicator: CHO/OUABAIN, Metabolic Activation: NONE): inactive; negative | mutagenic call (Test System: CHINESE HAMSTER OVARY, Strain/Indicator: CHO/OUABAIN, Metabolic Activation: RAT, LIVER, S-9): inactive; negative

Cn1ccc2c3c(ccc4ccc(O)cc43)ccc21
mutagenic call (Test System: AMES SALMONELLA TYPHIMURIUM, Strain/Indicator: TA98, Metabolic Activation: RAT, LIVER, S-9, AROCLOR 1254, Method: STANDARD PLATE): inactive; negative | mutagenic call (Test System: AMES SALMONELLA TYPHIMURIUM, Strain/Indicator: TA98, Metabolic Activation: RAT, LIVER, S-9, AROCLOR, Method: STANDARD PLATE): active; positive

CC(=O)O[C@@H]1[C@H](OC(C)=O)COC(Nc2ccc([N+](=O)[O-])cc2)[C@@H]1OC(C)=O (some centres not stated)
mutagenic call (Test System: AMES SALMONELLA TYPHIMURIUM, Strain/Indicator: TA100, Metabolic Activation: NONE, Method: STANDARD PLATE): active; positive

ClCC1(CCl)[C@H]2CC(Cl)(Cl)[C@]1(CCl)[C@@H](Cl)[C@@H]2Cl
mutagenic call [1]: inactive; negative

CC(C)CCC[C@@H](C)[C@H]1CC[C@H]2[C@@H]3CC=C4C[C@@H](O)CC[C@]4(C)[C@H]3CC[C@]12C
mutagenic call (Test System: CHINESE HAMSTER V-79, Strain/Indicator: V-79/OUABAIN, Metabolic Activation: NONE): inactive; negative
